“Also recorded” adds a separate entry of the source. Counter-ions that a name gives are not always drawn.
Legend:
[1] = target: T1, Abeta pathological aggregates (Homo sapiens, UniProt P05067); assay: Radiobinding competition assay on AD brain homogenates, displacement of [3H]-Abeta-Ref; assay type: binding
T1 construct: Abeta pathological aggregates present in the human AD brain homogenates; from tissue; host or cells: human AD donor brain, Triton/sucrose-insoluble fraction
Procedure: The procedure was adapted from the protocol described in Bagchi et al., 2013. Frozen tissue blocks from AD donors were thawed on ice and homogenized in high salt buffer (50 mM Tris-HCl pH 7.5, 0.75M NaCl, 5 mM EDTA) supplemented with protease inhibitors (Complete; Roche 11697498001) at 4° C. using a glass Dounce homogenizer. The homogenate was centrifuged at 100,000×g (38,000 RPM) in an ultracentrifuge (Beckman, XL100K) for one hour at 4° C. using a pre-cooled 70.1 rotor (Beckman, 342184). Pellets were resuspended in high salt buffer supplemented with 1% Triton X-100 and homogenized at 4° C. using a glass Dounce homogenizer. […]
A fixed concentration of AD insoluble fraction was incubated with a tritiated reference Abeta ligand ([^3H]-Abeta-Ref) at 10 nM and increasing concentrations of non-radiolabelled example compound 1 in the range of […] to 2 μM for two hours at RT. […] The filters were analyzed on a Microbeta2 scintillation counter (PerkinElmer). Non-specific signal was determined with an excess of non-radiolabelled reference ligand (2 μM) and specific binding was calculated by subtracting the non-specific signal from the total signal. Competition was calculated as percent, where 0% was defined as the specific binding in the presence of vehicle and 100% as the values obtained in the presence of excess of the non-radiolabelled reference ligand. […]

[2] = target: T2, PD brain-derived alpha-synuclein aggregates (Homo sapiens, UniProt P37840); assay: Micro-radiobinding competition assay for the determination of binding affinity; details: human PD brain-derived alpha-synuclein aggregates; for inhibition at 0.1 µM: 100 nM non-radiolabelled compound, read-out: Micro-radiobinding competition assay Competition at 100 nM (%); for inhibition at 0.1 µM / inhibition at 1 µM: competition over tritiated [3H]-Example-1 ligand; for inhibition at 1 µM: 1 μM non-radiolabelled compound, read-out: Micro-radiobinding competition assay Competition at 1 μM (%)
T2 construct: from tissue; host or cells: human PD donor brain, sarkosyl-insoluble pellet
Procedure: The procedure was adapted from the protocol described in Spillantini et al., 1998. Frozen tissue blocks from PD donors were thawed on ice and homogenized using a glass dounce homogenizer. The homogenate was then centrifuged at 11,000×g (12,700 RPM) in an ultracentrifuge (Beckman, XL100K) for 20 minutes at 4° C. using a pre-cooled 70.1 rotor (Beckman, 342184). Pellets were resuspended in extraction buffer [10 mM Tris-HCl pH 7.4, 10% sucrose, […], 1% protease inhibitor (Calbiochem 539131), 1 mM EGTA, 1% phosphatase inhibitor (Sigma P5726 and P0044)] and centrifuged at 15,000×g (14,800 RPM, a 70.1 Ti rotor) for 20 minutes at 4° C. Pellets were discarded and sarkosyl (20% stock solution, Sigma L7414) was added to the supernatants to a final concentration of 1% at room temperature for one hour. This solution was then centrifuged at 100,000×g (38,000 RPM, 70.1 Ti rotor) for one hour at 4° C. Pellets containing enriched alpha-synuclein aggregates were resuspended in PBS and stored at −80° C. until use.
PD brain-derived alpha-synuclein aggregates were spotted onto microarray slides. The slides were incubated with [^3H]-alpha-synuclein reference at 6 nM or 20 nM and the example compounds (non-radiolabelled) at 1 μM and 100 nM. In some cases, the non-radiolabelled example compounds were further assessed for a range of different concentrations, varying from 0.05 nM to 2 μM. After incubation, slides were washed and scanned by a real-time autoradiography system (BeaQuant, ai4R). Quantification of the signal was performed by using the Beamage image analysis software (ai4R). Non-specific signal was determined with an excess of non-radiolabelled Example-1 (2 μM) and specific binding was calculated by subtracting the non-specific signal from the total signal. Competition was calculated as percent, where 0% was defined as the specific binding in the presence of vehicle and 100% as the values obtained in the presence of excess of the non-radiolabelled Example-1. Ki values were calculated in GraphPad Prism7 by applying a nonlinear regression curve fit using a one site, specific binding model. All measurements were performed with at least two technical replicates. For compounds tested in more than one experiment, the mean of the replicates or Ki values in independent experiments is reported.
Results: Example compounds were assessed for their potency to compete with the binding of [^3H]-reference alpha-synuclein ligand to PD patient brain-derived alpha-synuclein aggregates. Results of the micro-radiobinding competition assay for the example compounds tested are shown in Table 3 as: % competition at 1 μM and 100 nM.
Table 3: Assessment of binding affinity by micro-radiobinding competition assay on human PD brain-derived alpha-synuclein aggregates. Percent (%) competition over the tritiated [^3H]-Example-1 ligand in the presence of 1 μM and 100 nM of example compounds 1-9. Ki values are also shown for selected example compounds. *, mean of Ki values in two independent experiments using PD brain-derived homogenates from two different donors.

[3] = tested on: pathological alpha-synuclein aggregates; assay: Autoradiography on frozen human brain sections (specific binding, Kd); details: 10 nM
Procedure: (§1) Frozen human brain sections from one familial PD case (alpha-synuclein [SNCA] gene G51D missense mutation), labelled as SNCA (G51D), one PDD case, one MSA case, one LBV case and two non-demented control (NDC) cases were first briefly fixed for 15 minutes at 4° C. with 4% paraformaldehyde (Sigma, 252549) and washed three times for five minutes with PBS (Dulbecco's phosphate buffered saline, Sigma) at RT. All slides were then equilibrated for 20 minutes in 50 mM Tris-HCl pH 7.4 buffer prior to use in the experiment. Each brain section was incubated with a fixed concentration (10 nM) of tritiated example compound 1 ([^3H]-Example-1) or increasing concentrations of [^3H]-Example-1 in the range of 2.5 nM to 80 nM of tritiated compound in Tris-HCl buffer for two hours at RT (Total binding, ‘TB’). To determine non-specific (NSB) binding ([^3H]-Example-1 was mixed with 5 μM of non-radiolabelled compound (Example 1, self-block, ‘NSB’). The slides were washed and then exposed and scanned in a real-time autoradiography system (BeaQuant instrument, ai4R). Specific binding was determined by subtracting the non-specific signal from the total signal. Kd values were calculated in GraphPad Prism7 by applying a nonlinear regression curve fit using a one site specific binding model.

[4] = target: T3, pathological alpha-synuclein aggregates (Homo sapiens, UniProt P37840, G51D); assay: as above
T3 construct: Frozen human brain sections from one familial PD case; from tissue; host or cells: frozen human brain sections: SNCA (G51D) familial PD, PDD, MSA, LBV, non-demented controls
Procedure: as §1

[5] = target: T4, alpha-synuclein aggregates (Lewy bodies and Lewy neurites) (Homo sapiens, UniProt P37840); assay: High resolution micro-autoradiography, target engagement in alpha-synucleinopathy tissues; assay type: binding; details: frozen human brain sections, PD, MSA, DLB, LBV, PDD; 10 nM or 20 nM
T4 construct: performed on frozen human brain sections from different alpha-synucleinopathy cases; from tissue; host or cells: frozen human brain sections (PD, PDD, MSA, DLB, LBV)
Procedure: (§2) The protocol was adapted from Marquie et al., 2015. Sections were incubated with tritiated example compound 1 ([^3H]-Example-1) at 10 nM or 20 nM or a reference Tau ligand ([^3H]-Tau-Ref at 20 nM for one hour at room temperature (RT). Sections were then washed as follows: One time in ice-cold 50 mM Tris-HCl pH 7.4 buffer for one minute, two times in 70% ice-cold ethanol for one minute, one time in ice-cold 50 mM Tris-HCl pH 7.4 buffer for one minute and finally rinsed briefly in ice-cold distilled water. Sections were subsequently dried and then exposed to Ilford Nuclear Emulsion Type K5 (Agar Scientific, AGP9281) in a light-proof slide storage box. After five days, the sections were developed by immersing them successively in the following solutions: 1.) Ilford Phenisol Developer (1:5 dilution in H2O, Agar Scientific, AGP9106), 2.) Ilfostop solution (1:20 dilution in H2O, Agar Scientific, AGP9104), 3.) Ilford Hypam Fixer (1:5 dilution in H2O, Agar Scientific, AGP9183) and finally rinsed with H2O.
When indicated, immunostaining was also performed on the same section. For image acquisition, sections were mounted using ProLong Gold Antifade reagent (Invitrogen P36930) and imaged on a Panoramic150 Slide Scanner (3DHistech) with a 20×objective capturing separately brightfield and fluorescent images. […]

[6] = target: T2, PD brain-derived alpha-synuclein aggregates; assay: Saturation binding on PD brain-derived alpha-synuclein aggregates by micro-radiobinding; details: PD brain tissue homogenates
Procedure: The procedure was adapted from the protocol described in Spillantini et al., 1998. Frozen tissue blocks from PD donors were thawed on ice and homogenized using a glass dounce homogenizer. The homogenate was then centrifuged at 11,000×g (12,700 RPM) in an ultracentrifuge (Beckman, XL100K) for 20 minutes at 4° C. using a pre-cooled 70.1 rotor (Beckman, 342184). Pellets were resuspended in extraction buffer [10 mM Tris-HCl pH 7.4, 10% sucrose, […], 1% protease inhibitor (Calbiochem 539131), 1 mM EGTA, 1% phosphatase inhibitor (Sigma P5726 and P0044)] and centrifuged at 15,000×g (14,800 RPM, a 70.1 Ti rotor) for 20 minutes at 4° C. […]
PD brain-derived alpha-synuclein aggregates were spotted onto microarray slides. […] Following exposure, phosphor storage screens were scanned with a laser imaging system (Typhoon FLA 7000) to readout the signal from the radiobinding experiments described above. Quantification of the signal was performed using the ImageJ software package. Non-specific signal was determined with an excess of non-radiolabelled reference ligand (Example-1 at 2 μM) and specific binding was calculated by subtracting the non-specific signal from the total signal. Kd values were calculated in GraphPad Prism7 by applying a nonlinear regression curve fit using a one site specific binding model.

Tau aggregates = assay: High resolution micro-autoradiography on AD tissue containing pathological Tau aggregates; assay type: binding, human
Procedure: as §2
When indicated, immunostaining was also performed on the same section. For image acquisition, sections were mounted using ProLong Gold Antifade reagent (Invitrogen P36930) and imaged on a Panoramic150 Slide Scanner (3DHistech) with a 20×objective capturing separately brightfield and fluorescent images.

T1 sequence (P05067 672-713 limits assumed): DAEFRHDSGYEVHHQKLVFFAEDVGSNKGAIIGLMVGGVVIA

SMILES	Ki ([1]; displacement of [3H]-Abeta-Ref (10 nM) on AD brain-derived homogenates) [nM]	Selectivity for alpha-synuclein over Abeta pathological aggregates ([1]; human AD brain homogenates versus PD brain binding affinity)	inhibition at 0.1 µM [2] [%]	inhibition at 1 µM [2] [%]	Ki ([2]; * = mean of two independent experiments, two donors) [nM]	Autoradiographic signal in non-demented control cases ([3]; non-demented control (NDC) brain sections)	Target engagement in alpha-synucleinopathy tissues by autoradiography ([3]; one PDD, one LBV and one MSA case)	Autoradiography signal in a genetic PD case ([4]; 2.5 nM to 80 nM, SNCA (G51D) brain sections)	Kd ([4]; human brain tissue sections, familial PD case (SNCA G51D missense mutation), autoradiography) [nM]	Target engagement on Lewy bodies and Lewy neurites (silver grains co-localized with a-syn-pS129) [5]	Kd [6] [nM]	Selectivity for alpha-synuclein over Tau pathological aggregates (Tau aggregates; AD brain tissue)	Target engagement on Tau aggregates in AD brain tissue (Tau aggregates; AD tissue, compared to reference Tau ligand [3H]-Tau-Ref)
O=C1N(c2cccnc2)Cc2cc(-c3ccc(N4CC[C@H](F)C4)nc3)nn21 [Example 1, (S)-2-(6-(3-fluoropyrrolidin-1-yl)pyridin-3-yl)-5-(pyridin-3-yl)-4H-imidazo[1,5-b]pyrazol-6(5H)-one hydrochloride]	360	good selectivity	56	91	69	–	–	–	–	–	–	–	–
O=C1N(c2cncs2)Cc2cc(-c3ccc(OCCF)nc3)nn21 [Example 23, 2-(6-(2-fluoroethoxy)pyridin-3-yl)-5-(thiazol-5-yl)-4,5-dihydro-6H-imidazo [1,5-b] pyrazol-6-one hydrogen chloride salt]	–	–	31	82	–	–	–	–	–	–	–	–	–
[3H]c1cncc(N2Cc3cc(-c4cnc(N5CC[C@H](F)C5)c([3H])c4)nn3C2=O)c1 [[^3H]-Example-1]	–	–	–	–	–	very weak	displayed target engagement	dose-dependent autoradiography signal	44	strong target engagement	18	good selectivity for alpha-synuclein over Tau	did not display specific target engagement; also recorded: No accumulation of silver grains

Source: patent US20250018068A1, “4H-IMIDAZO[1,5-B]PYRAZOLE DERIVATIVES FOR DIAGNOSIS” (AC IMMUNE SA, priority 2021, published 2025)
